Experimental data published in patent publication US20080009418A1, “Selective Inhibitors” (Alchemia LTD., priority 2004, published 2008).

Legend:
Human neurokinin (NK1) = target: T1, Human neurokinin (NK1) (Homo sapiens, UniProt P25103); assay: Radioligand binding, human neurokinin NK1 membranes, filtration, [125I]-Substance P; conditions: compound at 10 μM, [125I]-Substance P
T1 construct: purchased Perkin Elmer Biosignal
In short: (§1)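 Filtration binding on cloned human receptor membranes (1 Unit/well), [125I]-Substance P for NK1 and [3H]-Diprenorphine for KOP, 1 h at room temperature. Filters PEI-presoaked, washed with cold 50 mM Tris-HCl pH 7.4, counted by scintillation; percent inhibition calculated, reference ligand defining non-specific binding.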

Human opioid (ORL1) = target: T2, Human opioid (ORL1) (Homo sapiens, UniProt P41146); assay: Radioligand binding, human opioid ORL1 membranes, FlashPlate, [125I]-Nociceptin; conditions: compound at 10 μM, [125I]-Nociceptin
T2 construct: purchased Perkin Elmer Biosignal
T2 sequence (P41146 whole entry): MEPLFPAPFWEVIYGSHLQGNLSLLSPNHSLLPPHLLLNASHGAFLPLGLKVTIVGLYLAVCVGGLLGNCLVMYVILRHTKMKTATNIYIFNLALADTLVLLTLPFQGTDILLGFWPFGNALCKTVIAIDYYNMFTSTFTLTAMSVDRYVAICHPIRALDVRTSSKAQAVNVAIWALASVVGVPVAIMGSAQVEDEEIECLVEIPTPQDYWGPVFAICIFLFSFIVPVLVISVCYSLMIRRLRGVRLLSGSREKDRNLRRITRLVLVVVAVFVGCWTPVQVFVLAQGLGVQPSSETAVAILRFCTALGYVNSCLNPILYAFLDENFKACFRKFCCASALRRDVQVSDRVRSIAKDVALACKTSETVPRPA
In short: (§2)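 Cloned human receptor membranes were coated onto FlashPlate wells and incubated with radioligand and compound (added from a 0.5 mM DMSO daughter plate) for 1 hour at room temperature in the dark. Scintillation counting gave percent inhibition, with DMSO defining total and reference ligand defining non-specific binding.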

Human δ-opioid (DOP) = target: T3, Human δ-opioid (DOP) (Homo sapiens, UniProt P41143); assay: Radioligand binding, human δ-opioid (DOP) membranes, FlashPlate, [3H]-Bremazocine; conditions: compound at 10 μM, [3H]-Bremazocine
T3 construct: purchased Perkin Elmer Biosignal
T3 sequence (P41143 whole entry): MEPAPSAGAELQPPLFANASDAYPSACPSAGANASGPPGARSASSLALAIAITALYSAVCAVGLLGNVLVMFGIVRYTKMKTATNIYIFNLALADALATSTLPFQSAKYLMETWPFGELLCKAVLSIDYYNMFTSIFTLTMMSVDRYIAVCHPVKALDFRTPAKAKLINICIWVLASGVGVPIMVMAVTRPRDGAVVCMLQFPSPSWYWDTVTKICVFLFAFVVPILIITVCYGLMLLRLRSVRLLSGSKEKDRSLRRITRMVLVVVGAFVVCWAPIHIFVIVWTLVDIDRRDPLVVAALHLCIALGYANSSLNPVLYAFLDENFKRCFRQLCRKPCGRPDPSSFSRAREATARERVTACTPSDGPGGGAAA
In short: as §2

Mouse urotensin (mUR2) = target: T4, Mouse urotensin (mUR2) (Mus musculus, UniProt Q8VIH9); assay: Radioligand binding, mouse urotensin mUR2 membranes, FlashPlate, [125I]-Urotensin II; conditions: compound at 10 μM, [125I]-Urotensin II
T4 construct: purchased Perkin Elmer Biosignal
T4 sequence (Q8VIH9 1-385): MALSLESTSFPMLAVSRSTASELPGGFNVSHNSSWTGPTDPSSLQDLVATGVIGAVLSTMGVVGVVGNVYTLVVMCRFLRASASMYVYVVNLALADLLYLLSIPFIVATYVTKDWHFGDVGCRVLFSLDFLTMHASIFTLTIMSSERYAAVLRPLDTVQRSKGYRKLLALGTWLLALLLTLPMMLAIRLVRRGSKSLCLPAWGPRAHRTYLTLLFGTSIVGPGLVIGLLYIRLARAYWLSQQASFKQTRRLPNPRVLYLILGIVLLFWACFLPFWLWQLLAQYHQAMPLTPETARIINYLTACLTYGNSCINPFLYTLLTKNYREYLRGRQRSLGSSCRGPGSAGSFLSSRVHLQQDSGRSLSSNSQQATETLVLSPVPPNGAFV
In short: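 Cloned mouse urotensin (mUR2) receptor membranes from Perkin Elmer Biosignal were immobilized in FlashPlate microplates using a proprietary coating. Each well got 19.5 μl buffer, then 0.5 μl of DMSO, reference ligand, or compound. Adding 5 μl of [125I]-Urotensin II, diluted to 5× final concentration in binding buffer, started binding. Plates were sealed with TopSeal-A and incubated 1 hour at room temperature in the dark. Wells were counted for 30 seconds each on a TopCount after a 60-second delay, and percentage inhibition was calculated.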

Human melanocortin (MC5) = target: T5, Human melanocortin (MC5) (Homo sapiens, UniProt P33032); assay: Radioligand binding, human melanocortin MC5 membranes, FlashPlate, [125I]-NDP-αMSH; conditions: compound at 10 μM, [125I]-NDP-αMSH
T5 construct: purchased Perkin Elmer Biosignal
T5 sequence (P33032 whole entry): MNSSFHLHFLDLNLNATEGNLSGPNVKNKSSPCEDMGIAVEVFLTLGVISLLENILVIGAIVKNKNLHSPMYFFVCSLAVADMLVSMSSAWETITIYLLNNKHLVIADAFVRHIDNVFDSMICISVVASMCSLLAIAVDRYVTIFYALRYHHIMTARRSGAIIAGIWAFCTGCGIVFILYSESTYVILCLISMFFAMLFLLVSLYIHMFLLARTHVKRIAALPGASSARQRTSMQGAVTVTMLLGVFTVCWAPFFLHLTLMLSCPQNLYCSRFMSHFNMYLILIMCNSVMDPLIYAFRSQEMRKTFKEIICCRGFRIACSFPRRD
In short: as §2

Human μ-opioid (MOP) = target: T6, Human μ-opioid (MOP) (Homo sapiens, UniProt P35372); assay: Radioligand binding, human μ-opioid (MOP) membranes, FlashPlate, [3H]-Naloxone; conditions: compound at 10 μM, [3H]-Naloxone
T6 construct: purchased Perkin Elmer Biosignal
T6 sequence (P35372 whole entry): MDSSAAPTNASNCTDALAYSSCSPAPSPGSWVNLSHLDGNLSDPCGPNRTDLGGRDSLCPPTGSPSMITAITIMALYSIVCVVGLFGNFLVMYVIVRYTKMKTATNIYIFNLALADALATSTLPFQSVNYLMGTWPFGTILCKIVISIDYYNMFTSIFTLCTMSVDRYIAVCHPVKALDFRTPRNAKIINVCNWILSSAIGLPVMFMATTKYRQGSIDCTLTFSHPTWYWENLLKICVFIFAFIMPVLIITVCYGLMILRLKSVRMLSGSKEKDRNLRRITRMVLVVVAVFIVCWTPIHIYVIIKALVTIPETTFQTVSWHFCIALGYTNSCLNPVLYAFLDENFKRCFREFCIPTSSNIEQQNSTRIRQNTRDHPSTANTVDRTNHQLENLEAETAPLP
In short: as §2

[1] = target: T7, Human melanin-concentrating hormone (MCH1) (Homo sapiens, UniProt Q99705); assay: Radioligand binding, human melanin-concentrating hormone MCH1 membranes, FlashPlate, [125I]-S36057; conditions: compound at 10 μM
T7 construct: purchased Perkin Elmer Biosignal
T7 sequence (Q99705 whole entry): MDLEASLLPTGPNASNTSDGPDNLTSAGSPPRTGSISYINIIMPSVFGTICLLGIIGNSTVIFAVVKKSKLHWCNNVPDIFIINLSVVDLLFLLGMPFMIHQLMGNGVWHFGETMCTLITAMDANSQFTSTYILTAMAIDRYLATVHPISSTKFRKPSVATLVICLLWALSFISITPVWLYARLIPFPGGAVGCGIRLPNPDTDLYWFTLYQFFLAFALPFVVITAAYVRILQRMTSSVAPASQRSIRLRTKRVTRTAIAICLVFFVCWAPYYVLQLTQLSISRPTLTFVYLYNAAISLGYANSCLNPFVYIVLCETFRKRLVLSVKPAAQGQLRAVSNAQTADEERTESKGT
In short: as §2

Human κ-Opioid (KOP) = target: T8, Human κ-Opioid (KOP) (Homo sapiens, UniProt P41145); assay: Radioligand binding, human κ-opioid (KOP) membranes, filtration, [3H]-Diprenorphine; conditions: compound at 10 μM, [3H]-Diprenorphine
T8 construct: purchased Perkin Elmer Biosignal
T8 sequence (P41145 whole entry): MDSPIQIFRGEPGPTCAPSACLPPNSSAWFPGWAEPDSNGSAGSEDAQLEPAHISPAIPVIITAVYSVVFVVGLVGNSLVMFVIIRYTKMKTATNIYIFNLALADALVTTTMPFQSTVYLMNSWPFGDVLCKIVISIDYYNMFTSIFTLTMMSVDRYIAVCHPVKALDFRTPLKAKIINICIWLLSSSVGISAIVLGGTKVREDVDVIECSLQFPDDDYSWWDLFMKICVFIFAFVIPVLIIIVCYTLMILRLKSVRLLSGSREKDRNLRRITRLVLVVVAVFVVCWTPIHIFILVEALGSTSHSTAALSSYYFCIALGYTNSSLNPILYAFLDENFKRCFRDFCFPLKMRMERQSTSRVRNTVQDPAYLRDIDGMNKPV
In short: as §1

[2] = target: T9, Human neuropeptide Y (NPY-Y1) (Homo sapiens, UniProt P25929); assay: Radioligand binding, human neuropeptide Y NPY-Y1 membranes, FlashPlate, [125I]-PYY; conditions: compound at 10 μM, [125I]-PYY
T9 construct: purchased Perkin Elmer Biosignal
T9 sequence (P25929 1-384): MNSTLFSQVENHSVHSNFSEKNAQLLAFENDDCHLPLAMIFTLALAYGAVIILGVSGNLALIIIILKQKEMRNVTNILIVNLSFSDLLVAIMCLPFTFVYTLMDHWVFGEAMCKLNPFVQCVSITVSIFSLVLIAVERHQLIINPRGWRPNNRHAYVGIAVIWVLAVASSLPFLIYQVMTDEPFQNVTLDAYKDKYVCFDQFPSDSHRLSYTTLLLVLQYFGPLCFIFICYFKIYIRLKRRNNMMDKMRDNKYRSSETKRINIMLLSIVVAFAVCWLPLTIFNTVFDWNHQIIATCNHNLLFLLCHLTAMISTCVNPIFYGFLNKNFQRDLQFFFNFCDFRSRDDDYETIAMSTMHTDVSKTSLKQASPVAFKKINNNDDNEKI
In short: as §2

Human Melanocortin (MC3) = target: T10, Human Melanocortin (MC3) (Homo sapiens, UniProt P41968); assay: Radioligand binding, human melanocortin MC3 membranes, FlashPlate, [125I]-NDP-αMSH; conditions: compound at 10 μM, [125I]-NDP-αMSH
T10 construct: purchased Perkin Elmer Biosignal
T10 sequence (P41968 whole entry): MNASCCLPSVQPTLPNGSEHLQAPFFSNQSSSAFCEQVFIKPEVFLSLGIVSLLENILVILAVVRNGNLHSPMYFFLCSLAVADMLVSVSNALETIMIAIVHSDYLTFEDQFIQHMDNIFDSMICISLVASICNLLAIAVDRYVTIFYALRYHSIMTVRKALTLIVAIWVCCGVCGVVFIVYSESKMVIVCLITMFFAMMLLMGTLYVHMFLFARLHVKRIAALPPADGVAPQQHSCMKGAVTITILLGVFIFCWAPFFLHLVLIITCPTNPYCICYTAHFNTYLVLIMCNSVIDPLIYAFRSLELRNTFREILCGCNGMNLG
In short: as §2

Human Melanocortin (MC4) = target: T11, Human Melanocortin (MC4) (Homo sapiens, UniProt P32245); assay: Radioligand binding, human melanocortin MC4 membranes, FlashPlate, [125I]-NDP-αMSH; conditions: compound at 10 μM, [125I]-NDP-αMSH
T11 construct: purchased Perkin Elmer Biosignal
T11 sequence (P32245 whole entry): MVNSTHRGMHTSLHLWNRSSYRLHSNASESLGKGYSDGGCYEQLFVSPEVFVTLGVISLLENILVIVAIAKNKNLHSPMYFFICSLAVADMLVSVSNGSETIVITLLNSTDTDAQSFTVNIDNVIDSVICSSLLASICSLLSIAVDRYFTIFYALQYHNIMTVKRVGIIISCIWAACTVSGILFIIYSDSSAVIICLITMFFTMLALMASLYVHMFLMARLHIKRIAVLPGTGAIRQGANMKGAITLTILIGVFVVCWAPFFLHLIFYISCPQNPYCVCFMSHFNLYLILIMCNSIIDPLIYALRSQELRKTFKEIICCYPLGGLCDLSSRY
In short: as §2

T1 sequence (P25103 whole entry): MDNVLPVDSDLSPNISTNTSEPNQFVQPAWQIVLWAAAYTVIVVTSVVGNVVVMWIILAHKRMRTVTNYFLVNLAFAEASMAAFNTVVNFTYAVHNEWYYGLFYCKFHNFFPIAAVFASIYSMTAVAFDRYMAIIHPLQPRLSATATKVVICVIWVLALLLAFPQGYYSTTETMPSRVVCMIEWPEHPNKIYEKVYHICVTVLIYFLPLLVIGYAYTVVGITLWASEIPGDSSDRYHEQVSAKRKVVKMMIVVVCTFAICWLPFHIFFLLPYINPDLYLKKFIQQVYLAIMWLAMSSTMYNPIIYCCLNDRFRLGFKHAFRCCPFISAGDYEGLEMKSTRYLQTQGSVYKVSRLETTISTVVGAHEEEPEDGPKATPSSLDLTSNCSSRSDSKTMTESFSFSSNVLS

Row | SMILES | A8: inhibition of radioligand binding, human neurokinin (NK1) (Human neurokinin (NK1)) | A10: inhibition of radioligand binding, human opioid (ORL1) (Human opioid (ORL1)) | A1: inhibition of radioligand binding, human δ-opioid (DOP) (Human δ-opioid (DOP)) | A11: inhibition of radioligand binding, mouse urotensin (mUR2) (Mouse urotensin (mUR2)) | A5: inhibition of radioligand binding, human melanocortin (MC5) (Human melanocortin (MC5)) | A7: inhibition of radioligand binding, human μ-opioid (MOP) (Human μ-opioid (MOP)) | A6: inhibition of radioligand binding, human melanin-concentrating hormone (MCH1) ([1]; [125I]-S36057) | A2: inhibition of radioligand binding, human κ-opioid (KOP) (Human κ-Opioid (KOP)) | A9: inhibition of radioligand binding, human neuropeptide Y (NPY-Y1) [2] | A3: inhibition of radioligand binding, human melanocortin (MC3) (Human Melanocortin (MC3)) | A4: inhibition of radioligand binding, human melanocortin (MC4) (Human Melanocortin (MC4)) | further results
1 | CO[C@H]1[C@H](O)[C@@H](COCc2ccc3ccccc3c2)OC(OCc2ccc(Cl)cc2)[C@@H]1NC(=O)CNC(=N)N (stereo partly shown) [compound 355] | + (“+” indicates greater than 50% inhibition at 10 μM) | − (“−” indicates less than 50% inhibition at 10 μM) | − (“−” indicates less than 50% inhibition at 10 μM) | − (“−” indicates less than 50% inhibition at 10 μM) | + (“+” indicates greater than 50% inhibition at 10 μM) | − (“−” indicates less than 50% inhibition at 10 μM) | − (“−” indicates less than 50% inhibition at 10 μM) | − (“−” indicates less than 50% inhibition at 10 μM) | − (“−” indicates less than 50% inhibition at 10 μM) | − (“−” indicates less than 50% inhibition at 10 μM) | + (“+” indicates greater than 50% inhibition at 10 μM) | –
2 | CSC1OC(COCc2cccc(N)c2)C(O)C(OCc2ccc(Cl)cc2)C1NC(=O)c1ccccc1 (stereo not shown) [compound 332] | + (“+” indicates greater than 50% inhibition at 10 μM) | − (“−” indicates less than 50% inhibition at 10 μM) | − (“−” indicates less than 50% inhibition at 10 μM) | − (“−” indicates less than 50% inhibition at 10 μM) | − (“−” indicates less than 50% inhibition at 10 μM) | − (“−” indicates less than 50% inhibition at 10 μM) | − (“−” indicates less than 50% inhibition at 10 μM) | − (“−” indicates less than 50% inhibition at 10 μM) | − (“−” indicates less than 50% inhibition at 10 μM) | − (“−” indicates less than 50% inhibition at 10 μM) | − (“−” indicates less than 50% inhibition at 10 μM) | –
3 | COC[C@H]1OC(OCc2ccc(Cl)cc2)[C@H](NC(=O)CCCN)[C@@H](OCc2ccc3ccccc3c2)[C@@H]1O (single isomer, unassigned) [compound 343] | + (“+” indicates greater than 50% inhibition at 10 μM) | − (“−” indicates less than 50% inhibition at 10 μM) | − (“−” indicates less than 50% inhibition at 10 μM) | − (“−” indicates less than 50% inhibition at 10 μM) | − (“−” indicates less than 50% inhibition at 10 μM) | − (“−” indicates less than 50% inhibition at 10 μM) | − (“−” indicates less than 50% inhibition at 10 μM) | − (“−” indicates less than 50% inhibition at 10 μM) | − (“−” indicates less than 50% inhibition at 10 μM) | − (“−” indicates less than 50% inhibition at 10 μM) | − (“−” indicates less than 50% inhibition at 10 μM) | –
4 | N=C(N)NCC(=O)NC1C(OCc2ccc(Cl)cc2)OC(COCc2ccccc2)C(O)C1OCc1ccc(-c2ccccc2)cc1 (stereo not shown) [compound 424] | – | – | – | – | – | – | – | – | – | – | – | A8: inhibition of radioligand binding (Human neurokinin (NK1); human NK1 membranes): + (“+” indicates greater than 50% inhibition at 10 μM); A10: inhibition of radioligand binding (Human opioid (ORL1); human ORL1 membranes): − (“−” indicates less than 50% inhibition at 10 μM); A1: inhibition of radioligand binding (Human δ-opioid (DOP); human DOP membranes): − (“−” indicates less than 50% inhibition at 10 μM); A11: inhibition of radioligand binding (Mouse urotensin (mUR2); mouse mUR2 membranes): − (“−” indicates less than 50% inhibition at 10 μM); A5: inhibition of radioligand binding (Human melanocortin (MC5); human MC5 membranes): + (“+” indicates greater than 50% inhibition at 10 μM); A7: inhibition of radioligand binding (Human μ-opioid (MOP); human MOP membranes): − (“−” indicates less than 50% inhibition at 10 μM); A6: inhibition of radioligand binding ([1]; [125I]-S36057, human MCH1 membranes): − (“−” indicates less than 50% inhibition at 10 μM); A2: inhibition of radioligand binding (Human κ-Opioid (KOP); human KOP membranes): − (“−” indicates less than 50% inhibition at 10 μM); A9: inhibition of radioligand binding ([2]; human NPY-Y1 membranes): − (“−” indicates less than 50% inhibition at 10 μM); A3: inhibition of radioligand binding (Human Melanocortin (MC3); human MC3 membranes): + (“+” indicates greater than 50% inhibition at 10 μM); A4: inhibition of radioligand binding (Human Melanocortin (MC4); human MC4 membranes): + (“+” indicates greater than 50% inhibition at 10 μM)
5 | COC[C@H]1OC(OCc2ccc(-c3ccccc3)cc2)[C@H](NC(=O)CCNC(=N)N)[C@@H](OCc2cccc(O)c2)[C@@H]1O (stereo partly shown) [compound 130] | – | – | – | – | – | – | – | – | – | – | – | A8 radioligand binding, percentage inhibition (Human neurokinin (NK1)): − (“−” indicates less than 50% inhibition at 10 μM); A10 radioligand binding, percentage inhibition (Human opioid (ORL1)): − (“−” indicates less than 50% inhibition at 10 μM); A1 radioligand binding, percentage inhibition (Human δ-opioid (DOP)): − (“−” indicates less than 50% inhibition at 10 μM); A11 radioligand binding, percentage inhibition (Mouse urotensin (mUR2)): − (“−” indicates less than 50% inhibition at 10 μM); A5 radioligand binding, percentage inhibition (Human melanocortin (MC5)): − (“−” indicates less than 50% inhibition at 10 μM); A7 radioligand binding, percentage inhibition (Human μ-opioid (MOP)): + (“+” indicates greater than 50% inhibition at 10 μM); A6 radioligand binding, percentage inhibition ([1]; [125I]-S36057): − (“−” indicates less than 50% inhibition at 10 μM); A2 radioligand binding, percentage inhibition (Human κ-Opioid (KOP)): − (“−” indicates less than 50% inhibition at 10 μM); A9 radioligand binding, percentage inhibition [2]: − (“−” indicates less than 50% inhibition at 10 μM); A3 radioligand binding, percentage inhibition (Human Melanocortin (MC3)): − (“−” indicates less than 50% inhibition at 10 μM); A4 radioligand binding, percentage inhibition (Human Melanocortin (MC4)): − (“−” indicates less than 50% inhibition at 10 μM)
